Results reported in US10906938B2, “Cell epitopes and combination of cell epitopes for use in the immunotherapy of myeloma and other cancers” (Immatics Biotechnologies GmbH, priority 2015, dated 2021).

Tests used:
MM.1S cells = test: HLA class I ligand presentation upon carfilzomib treatment on MM.1S cells (LC-MS/MS); assay type: cell-based, human; parameters: key to modulation upon carfilzomib-treatment 24 #1 / modulation upon carfilzomib-treatment 24 #2 / modulation upon carfilzomib-treatment 24 #3 / modulation upon carfilzomib-treatment 48 #1 / modulation upon carfilzomib-treatment 48 #2 / modulation upon carfilzomib-treatment 48 #3: −1: significantly down-modulated; 0: not signifcant/not detected; 1: significantly up-modulated; settings: for modulation upon carfilzomib-treatment 24 #1 / modulation upon carfilzomib-treatment 24 #2 / modulation upon carfilzomib-treatment 24 #3: 24 h after carfilzomib treatment (100 nM, 1 h); for modulation upon carfilzomib-treatment 24 #1 / modulation upon carfilzomib-treatment 48 #1: biological replicate #1; for modulation upon carfilzomib-treatment 24 #1 / modulation upon carfilzomib-treatment 24 #2 / modulation upon carfilzomib-treatment 24 #3 / modulation upon carfilzomib-treatment 48 #1 / modulation upon carfilzomib-treatment 48 #2 / modulation upon carfilzomib-treatment 48 #3: vs mock-treated controls; for modulation upon carfilzomib-treatment 24 #2 / modulation upon carfilzomib-treatment 48 #2: biological replicate #2; for modulation upon carfilzomib-treatment 24 #3 / modulation upon carfilzomib-treatment 48 #3: biological replicate #3; for modulation upon carfilzomib-treatment 48 #1 / modulation upon carfilzomib-treatment 48 #2 / modulation upon carfilzomib-treatment 48 #3: 48 h after carfilzomib treatment (100 nM, 1 h)
Description: (§1) HLA class I and II molecules were isolated using standard immunoaffinity purification as described using the pan-HLA class I specific mAb W6/32, the pan-HLA class II specific mAb T039 and the HLA-DR specific mAB L243 (produced in house).
(§2) HLA ligand extracts were analyzed in 5 technical replicates as described previously. In brief, peptide samples were separated by nanoflow HPLC (RSLCnano, ThermoFisher) using a 50 μm×25 cm PepMap RSLC column (Thermo Fisher) and a gradient ranging from 2.4 to 32.0% acetonitrile over the course of 90 min. Eluting peptides were analyzed in an online coupled LTQ Orbitrap XL mass spectrometer (Thermo Fisher) using a top 5 CID (collision induced dissociation) fragmentation method.
(§3) Data processing was performed as described previously. In brief, the Mascot search engine (Mascot 2.2.04; Matrix Science, London, UK) was implemented to search the human proteome as comprised in the Swiss-Prot database (20,279 reviewed protein sequences, September 2013) without enzymatic restriction. Potential mutated HLA ligands were searched implementing a database containing the human proteome concatenated with proteins containing single amino acid variants (SAVs) listed in the COSMIC database (http://cancer.sanger.ac.uk/cosmic/). Only recurrent SAVs described in 2 or more samples of hematological origin were included. Oxidized methionine was allowed as a dynamic modification. The false discovery rate was estimated using the Percolator algorithm and set to 5%. Peptide lengths were limited to 8-12 amino acids for HLA class I and 12-25 amino acids for HLA class II. Protein inference was disabled, allowing for multiple protein annotations of peptides. HLA annotation was performed using SYFPEITHI [46] or an extended in-house database. Experimental validation of peptide identifications and HLA annotations was performed by mass spectrometric and functional characterization of synthetic peptides for a subset of peptides.
(§4) The inventors quantitatively assessed HLA class I ligand presentation during proteasome inhibitor therapy. Observed was a considerable plasticity of the HLA class I ligandome after treatment with carfilzomib with 17.9±1.1% of MM.1S ligands and 11.2±0.7% of U266 ligands (mean of three biological replicates ±s.d.) showing significant modulation (fold-change ≥4, Po0.01 after Benjamini-Hochberg correction) at t24 h compared with mock-treated controls. Briefly, Cultured MCLs (MM.1S and U266) and primary myeloma samples were incubated with carfilzomib (100 nM, Kyprolis®, available, e.g., from Onyx Pharmaceuticals, Inc.) as an example for a proteasome inhibitor for a 1-h period, followed by three washes in PBS (Gibco) and recultured for additional 24 or 48 h. Controls were incubated with vehicle control (glucose 5%) for 1 h, followed by identical washing and incubation for 24 or 48 h. Experiments were conducted in three biological replicates where indicated.

U266 cells = test: HLA class I ligand presentation upon carfilzomib treatment on U266 cells (LC-MS/MS); assay type: cell-based, human; parameters: key to modulation upon carfilzomib-treatment 24 #1 / modulation upon carfilzomib-treatment 24 #2 / modulation upon carfilzomib-treatment 24 #3 / modulation upon carfilzomib-treatment 48 #1 / modulation upon carfilzomib-treatment 48 #2 / modulation upon carfilzomib-treatment 48 #3: −1: significantly down-modulated; 0: not signifcant/not detected; 1: significantly up-modulated; settings: for modulation upon carfilzomib-treatment 24 #1 / modulation upon carfilzomib-treatment 24 #2 / modulation upon carfilzomib-treatment 24 #3 / modulation upon carfilzomib-treatment 48 #1 / modulation upon carfilzomib-treatment 48 #2 / modulation upon carfilzomib-treatment 48 #3: U266 cells, vs mock-treated controls; for modulation upon carfilzomib-treatment 24 #1 / modulation upon carfilzomib-treatment 24 #2 / modulation upon carfilzomib-treatment 24 #3: 24 h after carfilzomib treatment (100 nM, 1 h); for modulation upon carfilzomib-treatment 24 #1 / modulation upon carfilzomib-treatment 48 #1: biological replicate #1; for modulation upon carfilzomib-treatment 24 #2 / modulation upon carfilzomib-treatment 48 #2: biological replicate #2; for modulation upon carfilzomib-treatment 24 #3 / modulation upon carfilzomib-treatment 48 #3: biological replicate #3; for modulation upon carfilzomib-treatment 48 #1 / modulation upon carfilzomib-treatment 48 #2 / modulation upon carfilzomib-treatment 48 #3: 48 h after carfilzomib treatment (100 nM, 1 h)
Description: as §1, §2, §3, §4

[1] = carfilzomib 100 nM for 1 h, t24 h vs mock-treated controls, fold-change ≥4, Po0.01 after Benjamini-Hochberg correction, mean of three biological replicates ±s.d.
[2] = MM.1S cells, 24 h after carfilzomib treatment

Row | Compound | modulation upon carfilzomib-treatment 24 #1 (MM.1S cells; MM.1S cells) | modulation upon carfilzomib-treatment 24 #2 (MM.1S cells; MM.1S cells) | modulation upon carfilzomib-treatment 24 #3 (MM.1S cells; MM.1S cells) | modulation upon carfilzomib-treatment 48 #1 (MM.1S cells; MM.1S cells) | modulation upon carfilzomib-treatment 48 #2 (MM.1S cells; MM.1S cells) | modulation upon carfilzomib-treatment 48 #3 (MM.1S cells; MM.1S cells) | modulation upon carfilzomib-treatment 24 #1 (U266 cells) | modulation upon carfilzomib-treatment 24 #2 (U266 cells) | modulation upon carfilzomib-treatment 24 #3 (U266 cells) | modulation upon carfilzomib-treatment 48 #1 (U266 cells) | modulation upon carfilzomib-treatment 48 #2 (U266 cells) | modulation upon carfilzomib-treatment 48 #3 (U266 cells) | MM.1S ligands showing significant modulation (MM.1S cells; [1]) [%] | U266 ligands showing significant modulation (U266 cells; [1]) [%] | modulation of peptide presentation upon carfilzomib treatment (MM.1S cells; [2]) | biological replicates with significant up-modulation (MM.1S cells; [2])
1 | KPRPPQGL | 1 | 1 | 1 | 1 | 0 | 0 | 0 | 0 | 0 | 1 | 1 | 1 |  |  |  | 
2 | APRHPSTNSL | 0 | 0 | 1 | 0 | 0 | 0 | 0 | 1 | 0 | 1 | 1 | 0 |  |  |  | 
3 | RPKAQPTTL | 0 | 0 | 1 | 0 | 0 | 0 | 0 | 0 | 0 | 0 | 0 | 0 |  |  |  | 
4 | KPQPRPQTL | 1 | 1 | 1 | 0 | 0 | 0 | 0 | 0 | 0 | 0 | 0 | 0 |  |  |  | 
5 | IPAKPPVSF | 0 | 0 | 0 | 0 | 0 | 0 | 0 | 0 | 0 | 0 | 0 | 0 |  |  |  | 
6 | CC(C)C[C@H](NC(=O)[C@H](CCc1ccccc1)NC(=O)CN1CCOCC1)C(=O)N[C@@H](Cc1ccccc1)C(=O)N[C@@H](CC(C)C)C(=O)[C@@]1(C)CO1 [carfilzomib, reference compound] |  |  |  |  |  |  |  |  |  |  |  |  | 17.9±1.1 | 11.2±0.7 |  | 
7 | EYGHIPSF | 1 | 1 | 0 | 0 | 0 | 0 |  |  |  |  |  |  |  |  |  | 
8 | AFIQAGIFQEF | −1 | 0 | −1 | 0 | 0 | −1 |  |  |  |  |  |  |  |  |  | 
9 | TPSSRPASL | 1 | 1 | 0 | 0 | 0 | 0 | 0 | 0 | 0 | 0 | 0 | 0 |  |  |  | 
10 | RPQLKGVVL | 0 | 0 | 0 | 0 | 0 | 0 | 0 | 0 | 0 | 0 | 0 | 0 |  |  |  | 
11 | FAQIISVALI | 0 | 0 | 0 | 0 | 0 | 0 |  |  |  |  |  |  |  |  |  | 
12 | LAFPGEMLL (listed as Homo sapiens) [SEQ ID NO: 107] |  |  |  |  |  |  |  |  |  |  |  |  |  |  | no significant modulation | 
13 | RYLDLFTSF | −1 | −1 | −1 | 0 | −1 | −1 |  |  |  |  |  |  |  |  |  | 
14 | TASPLVKSV | 0 | 0 | 0 | 0 | 1 | 0 |  |  |  |  |  |  |  |  |  | 
15 | EYGHIPSF (listed as Homo sapiens) [SEQ ID NO: 42] |  |  |  |  |  |  |  |  |  |  |  |  |  |  | significant up-modulation | 2/3
16 | FVFPGELLL | 0 | 0 | 0 | 0 | 0 | 0 | 1 | 1 | 0 | 0 | 0 | 0 |  |  |  | 
17 | SEFDFFERL | 0 | 0 | 0 | 0 | 0 | −1 |  |  |  |  |  |  |  |  |  | 
18 | SPALPGLKL | 0 | 0 | 0 | 0 | 0 | 0 |  |  |  |  |  |  |  |  |  | 
